We go through 77 sequences from the supplement of paper PMC11208160.
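Note: IS621 recombinase and bridge RNA in Escherichia coli cells.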

This series can be described thus: recombinant barcode read abundance after kanamycin selection (control-corrected) (log10(CPM+1)); higher = more efficient recombination; sequences stand for … in AGTGCAGAGAAAATCGGCCAGTTTTCTCTGCCTGCAGTCCGCATGCCGT…AGATTTATGCAGCGGACTGCCTTTCTCCCAAAGTGATAAACCGGACAGTATCATGGACCGGTTTTCCCGGTAATCCGTATTTGCAAGGTTGGTTTCACT; site = the 11-nt target. In a few lines:
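In E. coli, a pooled library matched targets to IS621 bridge RNA target-binding loops and was introduced alongside a donor plasmid. Cells went onto chloramphenicol/ampicillin/kanamycin with 0.1 mM IPTG or onto chloramphenicol/ampicillin LB agar as control, in duplicate. Recombination efficiency, from recombinant-junction barcodes as counts per million, is averaged and control-corrected. It is reported as log10(CPM+1).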
Consider “TCAGGATCTTGGGTTCTAACCTGTTGCCT (site TCAGGATCTAG)”, for which the “recombinant barcode read abundance (log10)” value amounted to 0.679.
Next, “TCAGGATCTTGGGTTCTAACCTGTTGCCT (site TCAGTATCTAG)”: 0.291; “TCATATACTTGGGTTCTAACCTGTTGCCT (site ACATTTACTAG)”: 0.238.
Under “TCATATACTTGGGTTCTAACCTGTTGCCT (site TCATATACTAG)” stands 0.553; under “TCATATCCTTGGGTTCTAACCTGTTGCCT (site CTCCGAACTCT)”, 0.00468; under “TCATATCCTTGGGTTCTAACCTGTTGCCT (site TCATATCCTAG)”, 0.167.
Next, “TCATCCGCTTGGGTTCTAACCTGTTGCCT (site CCATCCACTAG)”: 0.12; “TCATCCGCTTGGGTTCTAACCTGTTGCCT (site TCATCCGCTAG)”: 1.05; “TCCAAACCTTGGGTTCTAACCTGTTGCAG (site TCCAAACCTCT)”: 0.898.
For “TCCAAACCTTGGGTTCTAACCTGTTGCAG (site TCCAACCCTCT)”, the “recombinant barcode read abundance (log10)” value was 0.0235.
Next, “TCCAAACCTTGGGTTCTAACCTGTTGCAG (site TCCAAGCCTCT)”: 0.151; “TCCAAACCTTGGGTTCTAACCTGTTGCAG (site TCCAATCCTCT)”: 0.0156; “TCCAGTCCTTGGGTTCTAACCTGTTGCTG (site AGCAGTCCTCA)”: 0.0888.
Next, “TCCAGTCCTTGGGTTCTAACCTGTTGCTG (site TCCAGTCCTCA)”: 0.285; “TCCCAAGCTTGGGTTCTAACCTGTTGCTA (site TCCAAAGCTTA)”: 0.589.
Under “TCCCAAGCTTGGGTTCTAACCTGTTGCTA (site TCCCAAGCTTA)” stands 1.32; under “TCCCAAGCTTGGGTTCTAACCTGTTGCTA (site TCCGAAGCTTA)”, 0.0505.
On to “TCCCAAGCTTGGGTTCTAACCTGTTGCTA (site TCCTAAGCTTA)”, for which the “recombinant barcode read abundance (log10)” value worked out at 0.141.
Turning to “TCCCGACCTTGGGTTCTAACCTGTTGCCT (site TCCCGAACTAG)”, the “recombinant barcode read abundance (log10)” value turned out to be 0.135.
Next, “TCCCGACCTTGGGTTCTAACCTGTTGCCT (site TCCCGACCTAG)”: 1.72; “TCCCGACCTTGGGTTCTAACCTGTTGCCT (site TCCCGAGCTAG)”: 0.107; “TCCCGACCTTGGGTTCTAACCTGTTGCCT (site TCCCGATCTAG)”: 0.0793.
As for “TCCCGCCCTTGGGTTCTAACCTGTTGCCT (site GCACGCCCTAG)”, the “recombinant barcode read abundance (log10)” value was 0.0125.
Consider “TCCCGCCCTTGGGTTCTAACCTGTTGCCT (site TCCCGCCCTAG)”, for which the “recombinant barcode read abundance (log10)” value came to 0.464.
Next, “TCCCGGACTTGGGTTCTAACCTGTTGCCT (site TCACGGACTAG)”: 0.212.
Next, “TCCCGGACTTGGGTTCTAACCTGTTGCCT (site TCCCGGACTAG)”: 0.892; “TCCCGGACTTGGGTTCTAACCTGTTGCCT (site TCGCGGACTAG)”: 0; “TCCCGGACTTGGGTTCTAACCTGTTGCCT (site TCTCGGACTAG)”: 0.1.
Next, “TCCGAAGCTTGGGTTCTAACCTGTTGCTA (site TCCAAAGCTTA)”: 0.0181; “TCCGAAGCTTGGGTTCTAACCTGTTGCTA (site TCCCAAGCTTA)”: 0.264; “TCCGAAGCTTGGGTTCTAACCTGTTGCTA (site TCCGAAGCTTA)”: 0.29.
For “TCCGAAGCTTGGGTTCTAACCTGTTGCTA (site TCCTAAGCTTA)”, the “recombinant barcode read abundance (log10)” value turned out to be 0.0103.
Under “TCCGAGACTTGGGTTCTAACCTGTTGCCT (site TCCGAGACTAG)” stands 1.4; under “TCCGAGACTTGGGTTCTAACCTGTTGCCT (site TCCGAGACTCG)”, 0.048.
Next, “TCCGAGACTTGGGTTCTAACCTGTTGCCT (site TCCGAGACTGG)”: 0.267.
Next, “TCCGAGACTTGGGTTCTAACCTGTTGCCT (site TCCGAGACTTG)”: 0.157; “TCCGGAGCTTGGGTTCTAACCTGTTGCCG (site GTGAACCCTTT)”: 0.0406; “TCCGGAGCTTGGGTTCTAACCTGTTGCCG (site TCCGGAGCTCG)”: 0.652.
For “TCCGGTTCTTGGGTTCTAACCTGTTGCCT (site ACGGGTTCTAG)”, the “recombinant barcode read abundance (log10)” value is 0.0897.
Under “TCCGGTTCTTGGGTTCTAACCTGTTGCCT (site TCCGGTTCTAG)” stands 0.965.
Next, “TCCGTGGCTTGGGTTCTAACCTGTTGCCT (site TCCGTGACTAG)”: 0.121.
Next, “TCCGTGGCTTGGGTTCTAACCTGTTGCCT (site TCCGTGCCTAG)”: 0.261; “TCCGTGGCTTGGGTTCTAACCTGTTGCCT (site TCCGTGGCTAG)”: 0.916; “TCCGTGGCTTGGGTTCTAACCTGTTGCCT (site TCCGTGTCTAG)”: 0.244.
Consider “TCCGTGTCTTGGGTTCTAACCTGTTGCCT (site TCCGTGACTAG)”, for which the “recombinant barcode read abundance (log10)” value turned out to be 0.0308.
Next, “TCCGTGTCTTGGGTTCTAACCTGTTGCCT (site TCCGTGCCTAG)”: 0.241; “TCCGTGTCTTGGGTTCTAACCTGTTGCCT (site TCCGTGGCTAG)”: 0.0597; “TCCGTGTCTTGGGTTCTAACCTGTTGCCT (site TCCGTGTCTAG)”: 2.24.
As to “TCCTAGTCTTGGGTTCTAACCTGTTGCAG (site GGTCCTCCTTC)”, the “recombinant barcode read abundance (log10)” value came to 0.0984.
“TCCTAGTCTTGGGTTCTAACCTGTTGCAG (site TCCTAGTCTCT)”: the “recombinant barcode read abundance (log10)” value came to 0.392.
Next, “TCCTATCCTTGGGTTCTAACCTGTTGCGT (site TCCCATCCTAC)”: 0.9; “TCCTATCCTTGGGTTCTAACCTGTTGCGT (site TCCTATCCTAC)”: 0.623; “TCCTGAGCTTGGGTTCTAACCTGTTGCTG (site TCCTGAGCTCA)”: 0.405.
Under “TCCTGAGCTTGGGTTCTAACCTGTTGCTG (site TCCTTAGCTCG)” stands 0.0103; under “TCCTTCACTTGGGTTCTAACCTGTTGCCT (site TCCTTCACTAG)”, 0.285; under “TCCTTCACTTGGGTTCTAACCTGTTGCCT (site TCGTTCGCTAG)”, 0.0665.
Next, “TCGAACTCTTGGGTTCTAACCTGTTGCTT (site TCGAACTCTAA)”: 0.339.
For “TCGAACTCTTGGGTTCTAACCTGTTGCTT (site TCGCGCTCTAA)”, the “recombinant barcode read abundance (log10)” value was 0.0841.
Under “TCGAAGTCTTGGGTTCTAACCTGTTGCTA (site AGATCTCCTAC)” stands 0.0769.
For “TCGAAGTCTTGGGTTCTAACCTGTTGCTA (site TCGAAGTCTTA)”, the “recombinant barcode read abundance (log10)” value was 0.272.
“TCGAGGCCTTGGGTTCTAACCTGTTGCTA (site CATCCATCTAT)”: the “recombinant barcode read abundance (log10)” value was 0.162.
Next, “TCGAGGCCTTGGGTTCTAACCTGTTGCTA (site TCGAGGCCTTA)”: 0.0602.
Next, “TCGAGTCCTTGGGTTCTAACCTGTTGCGG (site TCGAGTCCTCC)”: 1.08.
For “TCGAGTCCTTGGGTTCTAACCTGTTGCGG (site TTGAGGCCTCC)”, the “recombinant barcode read abundance (log10)” value was determined as 0.
Under “TCGAGTGCTTGGGTTCTAACCTGTTGCAG (site CTACTATCTAC)” stands 0.0294; under “TCGAGTGCTTGGGTTCTAACCTGTTGCAG (site TCGAGTGCTCT)”, 0.263; under “TCGATCCCTTGGGTTCTAACCTGTTGCCT (site TCAATCCCTAG)”, 0.194.
Under “TCGATCCCTTGGGTTCTAACCTGTTGCCT (site TCCATCCCTAG)” stands 0.144; under “TCGATCCCTTGGGTTCTAACCTGTTGCCT (site TCGATCCCTAG)”, 0.577; under “TCGATCCCTTGGGTTCTAACCTGTTGCCT (site TCTATCCCTAG)”, 0.0661.
Next, “TCGATTACTTGGGTTCTAACCTGTTGCCT (site TCGATCACTAG)”: 0.269; “TCGATTACTTGGGTTCTAACCTGTTGCCT (site TCGATTACTAG)”: 0.123; “TCGCACACTTGGGTTCTAACCTGTTGCCT (site ACGCACACTAG)”: 0.276.
Turning to “TCGCACACTTGGGTTCTAACCTGTTGCCT (site CCGCACACTAG)”, the “recombinant barcode read abundance (log10)” value is 0.324.
Under “TCGCACACTTGGGTTCTAACCTGTTGCCT (site GCGCACACTAG)” stands 0.814; under “TCGCACACTTGGGTTCTAACCTGTTGCCT (site TCGCACACTAG)”, 0.622; under “TCGCAGACTTGGGTTCTAACCTGTTGCAC (site TCGCAGACTGT)”, 0.0284.
